Reference: BindingDB's records for doi:10.1016/0006-2952(81)90220-3 (Royal Postgraduate Medical School, 1981)
“And” between values parts separate entries of the source, which are not always exact repeats. Equal entries are not always repeated.

Molecular target: Prostacyclin receptor (Mus musculus, UniProt P43252)
Sequence (P43252 whole entry): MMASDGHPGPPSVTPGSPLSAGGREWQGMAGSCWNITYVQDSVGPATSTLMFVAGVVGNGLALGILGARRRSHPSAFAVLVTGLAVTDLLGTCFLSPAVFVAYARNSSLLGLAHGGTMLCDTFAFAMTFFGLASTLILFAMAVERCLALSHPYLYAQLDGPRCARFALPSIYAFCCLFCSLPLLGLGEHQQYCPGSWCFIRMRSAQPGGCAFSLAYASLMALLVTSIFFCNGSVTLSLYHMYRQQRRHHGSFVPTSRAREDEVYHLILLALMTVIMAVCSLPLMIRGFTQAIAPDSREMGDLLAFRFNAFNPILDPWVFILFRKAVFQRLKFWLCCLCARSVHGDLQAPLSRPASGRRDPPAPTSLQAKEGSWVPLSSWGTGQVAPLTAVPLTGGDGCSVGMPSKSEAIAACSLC

Question: How did the Ki turn out when `CCCCC[C@H](O)/C=C/C1[C@H](O)CC(=O)[C@H]1CCCCCCC(=O)O` (stereo partly drawn) [8-ISO PROSTAGLANDIN E1] was run?
Answer: 0.735 µM

Question: Which Ki does the source give for `CCCCC[C@H](O)/C=C/[C@@H]1[C@@H](CC(=O)CCC(=O)O)[C@@H](O)C[C@H]1O` [2,3-dinor-6-ketoprostaglandin F1alpha] here?
Answer: > 10 µM

Question: Which Ki does the source give for `CCCCCC(=O)CC[C@H]1[C@H](O)CC(=O)[C@@H]1C/C=C\CCCC(=O)O` [13,14-DIHYDRO-15-KETO PROSTAGLANDIN E2] here?
Answer: 8.41 µM and > 10 µM

Question: For `CCCCC[C@H](O)/C=C/[C@H]1[C@H](O)CC(=O)[C@@H]1C/C=C/CCCC(=O)O` [(E)-7-((1R,2R,3R)-3-hydroxy-2-((S,E)-3-hydroxyoct-1-enyl)-5-oxocyclopentyl)hept-5-enoic acid], which Ki is on record?
Answer: 0.735 µM

Question: Which Ki does the source give for `CCCCC[C@@H](O)/C=C/[C@H]1[C@H](O)CC(=O)[C@@H]1CCCCCCC(=O)O` here?
Answer: 0.137 µM

Question: `CCCCCC(O)C=CC1C(O)CC(O)C1CCCCCCC(=O)O` (stereo not drawn) [NSC_5280939] was tested. Which Ki did it give?
Answer: > 10 µM

Question: With `CCCCC[C@@H](O)/C=C/[C@H]1[C@H](O)CC(=O)[C@@H]1C/C=C\CCCC(=O)O` as the compound, how does the Ki read?
Answer: > 10 µM

Question: For `CCCCC[C@H](O)CC[C@H]1[C@H](O)CC(=O)[C@@H]1CCCCCCC(=O)O` [CAS_19313-28-1], which Ki is on record?
Answer: 0.315 µM

Question: `CCCCC[C@H](O)/C=C/C1[C@H](O)C[C@H](O)[C@@H]1C/C=C\CCCC(=O)O` (stereo partly drawn) [(Z)-7-[(1R,3R,5S)-3,5-Dihydroxy-2-((E)-(S)-3-hydroxy-oct-1-enyl)-cyclopentyl]-hept-5-enoic acid] was tested. Which Ki did it give?
Answer: > 10 µM

Question: How did the Ki turn out when `CCCCC[C@H](O)/C=C/[C@@H]1[C@H]2C/C(=C\CCCC(=O)O)C[C@H]2C[C@H]1O` was run?
Answer: 0.0166 µM

Question: For `O=C(O)CCC/C=C\C[C@H]1C(=O)C[C@@H](O)[C@@H]1/C=C/[C@@H](O)CCc1ccccc1` [17-PHENYL TRINOR PROSTAGLANDIN E2], which Ki is on record?
Answer: 4.37 µM

Question: Which Ki does the source give for `CCCCC[C@H](O)/C=C/[C@H]1[C@H](O)CC(=O)[C@@H]1C/C=C\CCCC(=O)O` [DINOPROSTONE] here?
Answer: > 10 µM

Question: For `CCCCCC(O)C=CC1C(O)CC2OC(CCCCC(=O)O)CC21` (stereo not drawn) [CAS_162981], which Ki is on record?
Answer: 7.35 µM
